{"source": "patent US7414041B2", "about": "(Trustees Of Tufts College, priority 1991, dated 2008)", "key": {"S. aureus 450": {"test_system": "S. aureus 450", "experiment": "MIC of tetracycline susceptible strains, C5 esters", "type": "cell-based", "details": "Staphylococcus aureus; S. aureus 450, alone; read-out: MIC"}, "E. coli ML308": {"test_system": "E. coli ML308", "experiment": "MIC of tetracycline susceptible strains, C5 esters", "type": "cell-based", "details": "Escherichia coli; E. coli ML308, alone; read-out: MIC"}, "S. aureus 4250 (Tet K)": {"test_system": "S. aureus 4250 (Tet K)", "experiment": "MIC/MLC chart, analog with and without doxycycline", "type": "cell-based", "details": "for MIC/MLC chart symbol: Chart 6B, doxy = number in box (line above), listed as H analog alone"}, "E. faecalis 211 (Tet M)": {"test_system": "E. faecalis 211 (Tet M)", "experiment": "MIC/MLC chart, analog with and without doxycycline", "type": "cell-based", "details": "Chart 6D, doxy = number in box (line above), listed as H analog alone"}, "E. coli D1-299 (Tet A)": {"test_system": "E. coli D1-299 (Tet A)", "type": "cell-based", "details": "Chart 6A, doxy = number in box (line above), listed as H analog alone"}, "E. faecalis ATCC 9790": {"test_system": "E. faecalis ATCC 9790", "experiment": "MIC of tetracycline susceptible strains, C5 esters", "type": "cell-based", "details": "Enterococcus faecalis, ATCC9790; E. faecalis ATCC 9790, alone; read-out: MIC"}, "[1]": {"biological_target": "T1, TET proteins responsible for tetracycline efflux (Class B tetracycline resistance determinant, strain D1-209) (Escherichia coli, UniProt P02980)", "T1 construct": "Everted vesicles, to which the TET proteins responsible for tetracycline efflux are attached; endogenous in cells; host or cells: E. coli strain D1-209 (everted membrane vesicles)", "experiment": "biochemical", "set-up": "species or system E. coli"}, "E. faecalis 158 (Tet L)": {"test_system": "E. faecalis 158 (Tet L)", "experiment": "MIC/MLC chart, analog with and without doxycycline", "type": "cell-based", "details": "Chart 6C, doxy = number in box (line above), listed as H analog alone"}, "[2]": {"test_system": "E. coli Class β Tc^r (DI-209)", "type": "cell-based"}, "[3]": {"test_system": "E. faecalis Tc^r (L) (ATCC9790r/Tet L)", "type": "cell-based", "details": "Tc^r (L)"}, "[4]": {"test_system": "E. faecalis Tc^s (ATCC9790r)", "experiment": "susceptibility testing MIC/MLC, drug alone", "type": "cell-based"}, "[5]": {"test_system": "E. faecalis Tc^r (M) (ATCC9790r/Tet M)", "type": "cell-based"}, "S. aureus Tc^r (RN4250)": {"test_system": "S. aureus Tc^r (RN4250)", "type": "cell-based", "details": "Tc^r RN4250"}, "[6]": {"test_system": "E. coli Class A Tc^r (DI-299)", "type": "cell-based"}, "[7]": {"test_system": "E. coli Tc^s (MI 300-225)", "experiment": "susceptibility testing MIC/MLC, drug alone", "type": "cell-based"}, "S. aureus Tc^s (RN450)": {"test_system": "S. aureus Tc^s (RN450)", "experiment": "susceptibility testing MIC/MLC, drug alone", "type": "cell-based"}, "efflux protein": {"biological_target": "T2, efflux protein (Escherichia coli, UniProt P02980)", "T2 sequence (P02980 1-401)": "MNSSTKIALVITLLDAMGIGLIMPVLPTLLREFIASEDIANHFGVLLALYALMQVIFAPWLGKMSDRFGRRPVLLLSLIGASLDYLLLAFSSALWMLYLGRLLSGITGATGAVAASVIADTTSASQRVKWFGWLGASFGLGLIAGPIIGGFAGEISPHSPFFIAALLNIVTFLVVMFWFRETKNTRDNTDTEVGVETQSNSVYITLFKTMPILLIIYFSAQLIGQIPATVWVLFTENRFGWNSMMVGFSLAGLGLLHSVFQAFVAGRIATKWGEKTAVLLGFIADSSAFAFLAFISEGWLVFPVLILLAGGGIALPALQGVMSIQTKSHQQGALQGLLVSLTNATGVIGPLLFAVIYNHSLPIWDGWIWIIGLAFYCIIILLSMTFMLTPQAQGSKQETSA", "experiment": "everted membrane vesicle assay, blocking activity of 13-S-derivatives (Ki)", "type": "biochemical"}}, "note": "Like-named read-outs stand apart in the source and are kept apart here.", "data": [{"smiles": "C=C1c2cccc(O)c2C(=O)C2=C(O)C3(O)C(=O)C(C(N)=O)=C(O)C(N(C)C)C3C(OC(=O)CC)C12", "note": "(stereo not shown) [Cmpd 2, 5 proprionate methacycline]", "values": [{"measurement": "MIC", "setting": "S. aureus 450", "result": 1.3, "unit": "µg/mL"}, {"measurement": "MIC", "setting": "E. coli ML308", "result": 10, "unit": "µg/mL"}, {"measurement": "MIC/MLC chart symbol", "setting": "S. aureus 4250 (Tet K); analog 1.56 μg/ml", "result": "↓ and ◯ and +"}, {"measurement": "MIC/MLC chart symbol", "setting": "S. aureus 4250 (Tet K); analog .195 μg/ml", "result": "↓ and +"}, {"measurement": "MIC/MLC chart symbol", "setting": "S. aureus 4250 (Tet K); analog .39 μg/ml", "result": "↓ and +"}, {"measurement": "MIC/MLC chart symbol", "setting": "S. aureus 4250 (Tet K); analog .78 μg/ml", "result": "◯ and +"}, {"measurement": "MIC in combination", "setting": "S. aureus 4250 (Tet K); with 1.55 μg/ml doxycycline (Chart 6B)", "result": 1.56, "unit": "µg/mL"}, {"measurement": "MIC in combination", "setting": "S. aureus 4250 (Tet K); with 6.23 μg/ml doxycycline (Chart 6B)", "result": 0.78, "unit": "µg/mL"}, {"measurement": "MIC/MLC chart symbol", "setting": "E. faecalis 211 (Tet M); analog 1.56 μg/ml", "result": "◯ and +"}, {"measurement": "MIC/MLC chart symbol", "setting": "E. faecalis 211 (Tet M); analog 3.12 μg/ml", "result": "+"}, {"measurement": "MIC/MLC chart symbol", "setting": "E. faecalis 211 (Tet M); analog 6.25 μg/ml", "result": "↓ and +"}, {"measurement": "MIC/MLC chart symbol", "setting": "E. faecalis 211 (Tet M); analog .195 μg/ml", "result": "+"}, {"measurement": "MIC/MLC chart symbol", "setting": "E. faecalis 211 (Tet M); analog .39 μg/ml", "result": "+"}, {"measurement": "MIC/MLC chart symbol", "setting": "E. faecalis 211 (Tet M); analog .78 μg/ml", "result": "+"}, {"measurement": "MIC/MLC chart symbol", "setting": "E. coli D1-299 (Tet A); analog 1.56 μg/ml", "result": "+"}, {"measurement": "MIC/MLC chart symbol", "setting": "E. coli D1-299 (Tet A); analog 3.12 μg/ml", "result": "+"}, {"measurement": "MIC/MLC chart symbol", "setting": "E. coli D1-299 (Tet A); analog 3.12 μg/ml, listed as 5-proprionate methacycline", "result": "◯"}, {"measurement": "MIC/MLC chart symbol", "setting": "E. coli D1-299 (Tet A); analog 6.25 μg/ml", "result": "+"}, {"measurement": "MIC/MLC chart symbol", "setting": "E. coli D1-299 (Tet A); analog 6.25 μg/ml, listed as 5-proprionate methacycline", "result": "◯"}, {"measurement": "MIC/MLC chart symbol", "setting": "E. coli D1-299 (Tet A); analog 12.5 μg/ml", "result": "+"}, {"measurement": "MIC/MLC chart symbol", "setting": "E. coli D1-299 (Tet A); analog 25 μg/ml", "result": "+"}, {"measurement": "MIC/MLC chart symbol", "setting": "E. coli D1-299 (Tet A); analog 25 μg/ml, listed as 5-proprionate methacycline", "result": "◯"}, {"measurement": "MIC/MLC chart symbol", "setting": "E. coli D1-299 (Tet A); analog .195 μg/ml", "result": "+"}, {"measurement": "MIC/MLC chart symbol", "setting": "E. coli D1-299 (Tet A); analog .39 μg/ml", "result": "+"}, {"measurement": "MIC/MLC chart symbol", "setting": "E. coli D1-299 (Tet A); analog .78 μg/ml", "result": "+"}, {"measurement": "MIC", "setting": "E. faecalis ATCC 9790", "result": 0.8, "unit": "µg/mL"}, {"measurement": "IC50", "setting": "[1]", "result": 200, "unit": "nM"}, {"measurement": "MIC/MLC chart symbol", "setting": "E. faecalis 158 (Tet L); analog 1.56 μg/ml", "result": "↓ and ◯"}, {"measurement": "MIC/MLC chart symbol", "setting": "E. faecalis 158 (Tet L); analog .195 μg/ml", "result": "◯ and +"}, {"measurement": "MIC/MLC chart symbol", "setting": "E. faecalis 158 (Tet L); analog .39 μg/ml", "result": "◯ and +"}, {"measurement": "MIC/MLC chart symbol", "setting": "E. faecalis 158 (Tet L); analog .78 μg/ml", "result": "◯ and +"}]}, {"smiles": "CCSCC1c2cccc(O)c2C(=O)C2=C(O)C3(O)C(=O)C(C(N)=O)=C(O)C(N(C)C)C3CC21", "note": "(stereo not shown) [Ethyl, 6-deoxy-13-(ethylmercapto) tetracycline]", "values": [{"measurement": "MIC", "setting": "[2]; 1st column", "result": "36 ± 16", "unit": "µg"}, {"measurement": "MIC", "setting": "[2]; 2nd column", "result": "60 ± 10", "unit": "µg"}, {"measurement": "MIC", "setting": "[3]; 1st column", "result": "4 ± 1", "unit": "µg"}, {"measurement": "MIC", "setting": "[3]; 2nd column", "result": "100 ± 0.25", "unit": "µg"}, {"measurement": "MIC", "setting": "[4]; 1st column", "result": "1 ± 0.6", "unit": "µg"}, {"measurement": "MIC", "setting": "[4]; 2nd column", "result": "40 ± 0.25", "unit": "µg"}, {"measurement": "MIC", "setting": "[5]; 1st column", "result": "25 ± 6", "unit": "µg"}, {"measurement": "MIC", "setting": "[5]; 2nd column", "result": ">200", "unit": "µg"}, {"measurement": "MIC", "setting": "S. aureus Tc^r (RN4250)", "result": "5 ± 2", "unit": "µg"}, {"measurement": "MLC", "setting": "S. aureus Tc^r (RN4250); kills 99.9%", "result": "30 ± 10", "unit": "µg"}, {"measurement": "MIC", "setting": "[6]; 1st column", "result": "14 ± 4", "unit": "µg"}, {"measurement": "MIC", "setting": "[6]; 2nd column", "result": "46 ± 6", "unit": "µg"}, {"measurement": "MIC", "setting": "[7]; Tc^s, 1st column", "result": "6 ± 0.26", "unit": "µg"}, {"measurement": "MIC", "setting": "[7]; Tc^s, 2nd column", "result": 60, "unit": "µg"}, {"measurement": "MIC", "setting": "[7]; susceptible E. coli", "result": 5, "unit": "µg/mL"}, {"measurement": "MIC", "setting": "S. aureus Tc^s (RN450)", "result": "0.5 ± 0.25", "unit": "µg"}, {"measurement": "MLC", "setting": "S. aureus Tc^s (RN450); kills 99.9%", "result": 4, "unit": "µg"}, {"measurement": "Ki", "setting": "efflux protein", "result": 0.4, "unit": "µg/mL"}]}]}
